Reference: paper PMC6009904, “Carbonic anhydrase inhibitory properties of some uracil derivatives” (Journal of Enzyme Inhibition and Medicinal Chemistry, 2017)

Key:
[1] = biological target: T1, hCA I (Homo sapiens, UniProt P00915); experiment: hCA I inhibition, esterase assay with 4-nitrophenylacetate as substrate; type: biochemical; conditions: 4-nitrophenylacetate substrate, mean from at least three determinations, enzyme purified from human erythrocytes
T1 construct: we have purified CA I and II (hCA I and hCA II) from human erythrocytes; from tissue; host or cells: human erythrocytes (fresh human blood)
T1 sequence (P00915 whole entry): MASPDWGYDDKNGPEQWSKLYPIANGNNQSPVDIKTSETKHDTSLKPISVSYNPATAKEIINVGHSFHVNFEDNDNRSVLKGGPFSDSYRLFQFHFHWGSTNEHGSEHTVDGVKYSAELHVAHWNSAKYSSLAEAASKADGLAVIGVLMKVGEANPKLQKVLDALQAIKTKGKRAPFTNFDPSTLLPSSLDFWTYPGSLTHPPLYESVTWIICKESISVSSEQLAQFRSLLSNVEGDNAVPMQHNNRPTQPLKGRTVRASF
Procedure: (§1) Erythrocytes were purified from fresh human blood obtained from the Blood Centre of the Research Hospital at Atatürk University. The blood samples were centrifuged at 1500 rpm for 15 min and the plasma and buffy coat were removed. The red cells were isolated and washed twice with 0.9% NaCl, and hemolysed with 1.5 volumes of ice-cold water. The ghost and intact cells were removed by centrifugation at 20 000 rpm for 30 min at 4 °C. The pH of the hemolysate was adjusted to 8.7 with solid Tris[18]. Firstly, benzoyl chloride and stirred for four hours at room temperature in CH2Cl2 cellulose. After the spacer arm cellulose added as a benzyl group and finally diazotized sulfanilamide clamped to the para position of benzyl group as ligand. The hemolysate was applied to the prepared cellulose-benzyl-sulfanylamide affinity column equilibrated with 25 mM Tris-HCl/0.1 M Na2SO4 (pH 8.7). The affinity gel was washed with 25 mM Tris-HCl/22 mM Na2SO4 (pH 8.7). The human carbonic anhydrase (hCA I and hCA II) isozymes were eluted with 1 M NaCl/25 mM Na2HPO4 (pH 6.3) and 0.1 M CH3COONa/0.5 M NaClO4 (pH 5.6), respectively. All procedures were performed at 4 °C[16].
(§2) Enzyme activity was determined spectrophotometrically by following the change in absorbance at 348 nm of 4-nitrophenylacetate to 4-nitrophenylate over a period of 3 min at 25 °C[19–21]. The enzymatic reaction contained 1.4 mL 0.05 M Tris-SO4 buffer (pH 7.4), 1 mL 3 mM 4-nitrophenylacetate, 0.5 mL H2O and 0.1 mL enzyme solution, in a total volume of 3.0 mL[22]. Inhibitory effects of compounds 4–12 were compared with phenolic compounds 13–15. Different inhibitor concentrations were used and all compounds were tested in triplicate at each concentration used. Control cuvette activity was acknowledged as 100% in the absence of inhibitor. An Activity% – [Inhibitor] graph was drawn for each inhibitor[22–24]. The curve-fitting algorithm allowed to obtain the IC50 values, working at the lowest concentration of substrate of 0.15 mM, from which KI values were calculated[25]^,[26]. The catalytic activity of these enzymes was calculated from Lineweaver–Burk plots, as reported earlier, and represent the mean from at least three different determinations. The CA I and II isoenzymes used here were purified from human blood as described earlier.

[2] = biological target: T2, hCA II (Homo sapiens, UniProt P00918); experiment: hCA II inhibition, esterase assay with 4-nitrophenylacetate as substrate; type: biochemical; conditions: 4-nitrophenylacetate substrate, mean from at least three determinations, enzyme purified from human erythrocytes
T2 construct: we have purified CA I and II (hCA I and hCA II) from human erythrocytes; from tissue; host or cells: human erythrocytes (fresh human blood)
Procedure: as §1, §2

Row | SMILES | Ki [1] | Ki [2]
1 | Cn1c(N)c(N)c(=O)n(C)c1=O [5,6-Diamino 1,3-Dimethyluracil (12), 5,6-Diamino 1,3-Dimethyluracil] | 104 nM | 236 nM
2 | Cn1c(N)cc(=O)n(C)c1=O [6-Amino 1,3-Dimethyluracil (11), 6-Amino 1,3-Dimethyluracil] | 85 nM | 172 nM
3 | O=C(O)c1c[nH]c(=O)[nH]c1=O [Isoorotic acid (10), isoorotic acid] | 459 nM | 1430 nM
4 | O=C(O)c1cc(=O)[nH]c(=O)[nH]1 [Orotic acid (9), Orotic acid] | 732 nM | 1680 nM
